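Method: 48-hour compound exposure of cells in 96-well plates, five concentrations, linear interpolation of endpoints. TGI denotes the concentration required for complete inhibition of growth.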
Tests used:
Assay in all cases: NCI tumour cell line growth inhibition, 48 h
[1] = system: 786-0 renal
[2] = system: A549 NSCLC
[3] = system: ACHN renal
[4] = system: BT-549 breast
[5] = system: CAKI-1 renal
[6] = system: CCRF-CEM leukemia
[7] = system: COLO 205 colon
[8] = system: DU-145 prostate
[9] = system: EKVX NSCLC
[10] = system: HCC-2998 colon
[11] = system: HCT-116 colon
[12] = system: HCT-15 colon
[13] = system: HL-60(TB) leukemia
[14] = system: HOP-62 NSCLC
[15] = system: HOP-92 NSCLC
[16] = system: HS 578T breast
[17] = system: HT29 colon
[18] = system: IGROV1 ovarian
[19] = system: K-562 leukemia
[20] = system: KM12 colon
[21] = system: LOX IMVI melanoma
[22] = system: M14 melanoma
[23] = system: MALME-3M melanoma
[24] = system: MCF7 breast
[25] = system: MDA-MB-231 breast
[26] = system: MDA-MB-435
[27] = system: MDA-N
[28] = system: MOLT-4 leukemia
[29] = system: NCI-H226 lung
[30] = system: NCI-H23 lung
[31] = system: NCI-H522 lung
[32] = system: NCI/ADR-RES ovarian
[33] = system: OVCAR-3 ovarian
[34] = system: OVCAR-4 ovarian
[35] = system: OVCAR-5 ovarian
[36] = system: OVCAR-8 ovarian
[37] = system: PC-3 prostate
[38] = system: RPMI-8226 leukemia
[39] = system: RXF 393 renal
[40] = system: SF-268 CNS
[41] = system: SF-295 CNS
[42] = system: SF-539 CNS
[43] = system: SK-MEL-2 melanoma
[44] = system: SK-MEL-28 melanoma
[45] = system: SK-MEL-5 melanoma
[46] = system: SK-OV-3 ovarian
[47] = system: SN12C renal
[48] = system: SNB-19 CNS
[49] = system: SNB-75 CNS
[50] = system: SR leukemia
[51] = system: SW-620 colon
[52] = system: T-47D breast
[53] = system: TK-10 renal
[54] = system: U251 CNS
[55] = system: UACC-257 melanoma
[56] = system: UACC-62 melanoma
[57] = system: UO-31 renal
[58] = system: NCI-H460 lung

CC(C)OP(=O)(OC(C)C)C(C)(C)O
TGI [1]: > 100 µM
TGI [2]: > 100 µM
TGI [3]: > 100 µM
TGI [4]: > 100 µM
TGI [5]: > 100 µM
TGI [6]: > 100 µM
TGI [7]: > 100 µM
TGI [8]: > 100 µM
TGI [9]: > 100 µM
TGI [10]: > 100 µM
TGI [11]: > 100 µM
TGI [12]: > 100 µM
TGI [13]: > 100 µM
TGI [14]: > 100 µM
TGI [15]: > 100 µM
TGI [16]: > 100 µM
TGI [17]: > 100 µM
TGI [18]: > 100 µM
TGI [19]: > 100 µM
TGI [20]: > 100 µM
TGI [21]: > 100 µM
TGI [22]: > 100 µM
TGI [23]: > 100 µM
TGI [24]: > 100 µM
TGI [25]: > 100 µM
TGI [26]: > 100 µM
TGI [27]: > 100 µM
TGI [28]: > 100 µM
TGI [29]: > 100 µM
TGI [30]: > 100 µM
TGI [31]: > 100 µM
TGI [32]: > 100 µM
TGI [33]: > 100 µM
TGI [34]: > 100 µM
TGI [35]: > 100 µM
TGI [36]: > 100 µM
TGI [37]: > 100 µM
TGI [38]: > 100 µM
TGI [39]: > 100 µM
TGI [40]: > 100 µM
TGI [41]: > 100 µM
TGI [42]: > 100 µM
TGI [43]: > 100 µM
TGI [44]: > 100 µM
TGI [45]: > 100 µM
TGI [46]: > 100 µM
TGI [47]: > 100 µM
TGI [48]: > 100 µM
TGI [49]: > 100 µM
TGI [50]: > 100 µM
TGI [51]: > 100 µM
TGI [52]: > 100 µM
TGI [53]: > 100 µM
TGI [54]: > 100 µM
TGI [55]: > 100 µM
TGI [56]: > 100 µM
TGI [57]: > 100 µM

CCCc1nc2c(n1CC)C(=O)c1ccccc1C2=O
TGI [1]: > 100 µM
TGI [2]: > 100 µM
TGI [3]: > 100 µM
TGI [4]: > 100 µM
TGI [6]: > 100 µM
TGI [7]: > 100 µM
TGI [8]: > 100 µM
TGI [10]: > 100 µM
TGI [11]: > 100 µM
TGI [12]: 98 µM
TGI [13]: > 100 µM
TGI [14]: > 100 µM
TGI [16]: > 100 µM
TGI [17]: 53.3 µM
TGI [18]: > 100 µM
TGI [19]: > 100 µM
TGI [20]: > 100 µM
TGI [22]: 94 µM
TGI [23]: 60.5 µM
TGI [24]: > 100 µM
TGI [25]: > 100 µM
TGI [26]: 32.3 µM
TGI [27]: 49.4 µM
TGI [28]: > 100 µM
TGI [29]: > 100 µM
TGI [30]: > 100 µM
TGI [58]: > 100 µM
TGI [31]: > 100 µM
TGI [32]: 78.7 µM
TGI [33]: > 100 µM
TGI [34]: > 100 µM
TGI [35]: > 100 µM
TGI [37]: > 100 µM
TGI [38]: > 100 µM
TGI [39]: 69.1 µM
TGI [40]: > 100 µM
TGI [41]: > 100 µM
TGI [42]: > 100 µM
TGI [44]: > 100 µM
TGI [45]: 88.7 µM
TGI [46]: > 100 µM
TGI [47]: > 100 µM
TGI [48]: > 100 µM
TGI [49]: > 100 µM
TGI [50]: > 100 µM
TGI [51]: > 100 µM
TGI [52]: > 100 µM
TGI [53]: > 100 µM
TGI [54]: > 100 µM
TGI [55]: 45.6 µM
TGI [56]: > 100 µM

Reference: PubChem BioAssay (NCI)
